Results as given in patent US20200131669A1, “CYCLIC PEPTIDE COMPOUND HAVING HIGH MEMBRANE PERMEABILITY, AND LIBRARY CONTAINING SAME” (Chugai Seiyaku Kabushiki Kaisha, priority 2017, published 2020).
Starred links: 1 amine or outer side, 2 acyl side, 3 side chain; linkers in the order of their positions; H or OH if unused. Positions of bridges follow the written chain, without caps; N, C: chain ends. Non-standard residues stand in square brackets, D forms with d. Residues, ends and D or L forms follow the SMILES beside them. *: point of attachment. Phe(4-CF3) = N[C@@H](Cc1ccc(C(F)(F)F)cc1)C(=O)O; Tyr(3-F) = N[C@@H](Cc1ccc(O)c(F)c1)C(=O)O; NMeF = CN[C@@H](Cc1ccccc1)C(=O)O; NMeGABA = CN(CCCC(=O)[*:2])[*:1]; NMeI = CC[C@H](C)[C@H](NC)C(=O)O; NMeL = CN[C@@H](CC(C)C)C(=O)O; NMeV = CN[C@H](C(=O)O)C(C)C; NMeA = CN[C@@H](C)C(=O)O; Piperidide = C1CCN(*)CC1; dNMeA = CN[C@H](C)C(=O)O; Sar = CNCC(=O)O; tBu = CC(C)(C)*

Test: Caco-2 membrane permeability, improved method as used in the following Examples (96-well, 20 to 24 h preincubation)
Format: in vitro ADME
Details: Caco-2, Caco-2 (cm/sec)
Description: In the following Examples, membrane permeability was measured in accordance with the improved method established as described above. Specifically, Caco-2 cells were cultured on a 96-well Transwell for three weeks, after which DMEM+FaSSIF (1% DMSO)+compound were added to the apical side and DMEM was added to the basal side, and the cells were preincubated at 5% CO2, 37° C., and 80 rpm for 20 to 24 hours. Following the preincubation, measurement of membrane permeability was initiated by removing the preincubation solution on the apical and basal sides by suction, washing the membrane, and adding FaSSIF/HBSS buffer (1% DMSO) (pH 6.0) containing the compound to the apical side and HBSS buffer (4% BSA) (pH 7.4) to the basal side. Each well was shaken at 5% CO2, 37° C., and 80 rpm, and 180 minutes after the initiation, the sample on the basal side was collected and the permeation amount was measured by LC/MS. The membrane permeability coefficient (Papp) was calculated from the permeation amount. Herein, the terms “Caco-2 (cm/sec)” in the columns in the tables and “Papp (cm/sec)” are used in the same meaning.

SMILES	Papp A→B
CC(C)C[C@H]1C(=O)N[C@@H](COC(C)(C)C)C(=O)N(C)[C@@H](C(C)C)C(=O)N(C)[C@@H](C)C(=O)N[C@H](C(=O)N2CCCCC2)CC(=O)N[C@H](C)C(=O)N(C)[C@@H](Cc2ccccc2)C(=O)N[C@@H](Cc2ccc(C(F)(F)F)cc2)C(=O)N(C)[C@@H](CC(C)C)C(=O)N[C@@H]([C@@H](C)O)C(=O)N(C)CC(=O)N1C [pd130] ([dA][NMeF][Phe(4-CF3)][NMeL]T[Sar][NMeL]S(tBu)[NMeV][NMeA]D-Piperidide; lactam N-11)	1.1 ×10⁻⁶ cm/s
CC[C@H](C)[C@H]1C(=O)N[C@@H]([C@@H](C)O)C(=O)N(C)CC(=O)N(C)[C@@H](C)C(=O)N[C@H](C(=O)N2CCCCC2)CC(=O)N(C)[C@@H](C)C(=O)N[C@@H](Cc2ccc(C(F)(F)F)cc2)C(=O)N(C)[C@@H](CC(C)C)C(=O)N(C)[C@@H](Cc2ccccc2)C(=O)N[C@@H](C)C(=O)N(C)[C@@H](CC(C)C)C(=O)N1C [pd131] ([NMeA][Phe(4-CF3)][NMeL][NMeF]A[NMeL][NMeI]T[Sar][NMeA]D-Piperidide; lactam N-11)	1.1 ×10⁻⁶ cm/s

Same assay, conditions: human, Caco-2, Caco-2 (cm/sec)

SMILES	Papp A→B at 180 min
CC(C)C[C@@H]1NC(=O)[C@H](CC(C)C)N(C)C(=O)[C@H](C)N(C)C(=O)[C@@H](C(C)C)NC(=O)C[C@@H](C(=O)N2CCCCC2)NC(=O)[C@H]([C@@H](C)O)NC(=O)[C@H](C)N(C)C(=O)[C@H](C)N(C)C(=O)[C@H](CC(C)C)N(C)C(=O)[C@H](Cc2ccc(O)c(F)c2)NC(=O)[C@H](Cc2ccccc2)N(C)C1=O [pd113] ([dV][NMeA][NMeL]L[NMeF][Tyr(3-F)][NMeL][NMeA][NMeA]TD-Piperidide; lactam N-11)	0.029 ×10⁻⁶ cm/s
CC(C)C[C@H]1C(=O)N[C@H](C(=O)N2CCCCC2)CC(=O)N(C)CCCC(=O)N(C)[C@@H](CC(C)C)C(=O)N[C@@H](Cc2ccc(O)c(F)c2)C(=O)N(C)[C@@H](CC(C)C)C(=O)N(C)[C@@H](Cc2ccccc2)C(=O)N[C@@H](COC(C)(C)C)C(=O)N(C)[C@@H](CC(C)C)C(=O)N[C@@H]([C@@H](C)O)C(=O)N(C)CC(=O)N1C [pd114] ([NMeGABA][NMeL][Tyr(3-F)][NMeL][NMeF]S(tBu)[NMeL]T[Sar][NMeL]D-Piperidide; lactam N-11)	0.17 ×10⁻⁶ cm/s
CC[C@H](C)[C@H]1C(=O)N[C@@H](Cc2ccc(O)cc2)C(=O)N(C)CC(=O)N(C)[C@@H](CC(C)C)C(=O)N[C@H](C(=O)N2CCCCC2)CC(=O)N(C)[C@@H](C)C(=O)N[C@@H](CC(C)C)C(=O)N(C)[C@@H](C)C(=O)N(C)[C@@H](Cc2ccccc2)C(=O)N[C@@H](C(C)C)C(=O)N(C)[C@@H](C)C(=O)N1C [pd116] ([NMeA]L[NMeA][NMeF]V[NMeA][NMeI]Y[Sar][NMeL]D-Piperidide; lactam N-11)	0.14 ×10⁻⁶ cm/s
CC[C@H](C)[C@@H]1NC(=O)[C@H](CC(C)C)N(C)C(=O)[C@@H](C)NC(=O)C[C@@H](C(=O)N2CCCCC2)NC(=O)[C@H](C(C)C)N(C)C(=O)[C@H](Cc2ccccc2)N(C)C(=O)[C@H](COC(C)(C)C)NC(=O)[C@H](CC(C)C)N(C)C(=O)CN(C)C(=O)[C@H](Cc2ccc(O)cc2)NC(=O)[C@H](C)N(C)C1=O [pd117] ([dA][NMeL]I[NMeA]Y[Sar][NMeL]S(tBu)[NMeF][NMeV]D-Piperidide; lactam N-11)	0.56 ×10⁻⁶ cm/s
CC(C)C[C@H]1NC(=O)C[C@@H](C(=O)N2CCCCC2)NC(=O)[C@H](C)N(C)C(=O)[C@H](CC(C)C)N(C)C(=O)[C@H](COC(C)(C)C)NC(=O)[C@H](CC(C)C)N(C)C(=O)CN(C)C(=O)[C@H]([C@@H](C)O)NC(=O)[C@H](CC(C)C)N(C)C(=O)[C@H](Cc2ccc(O)c(F)c2)NC(=O)[C@H](Cc2ccccc2)N(C)C1=O [pd118] ([dL][NMeF][Tyr(3-F)][NMeL]T[Sar][NMeL]S(tBu)[NMeL][NMeA]D-Piperidide; lactam N-11)	0.2 ×10⁻⁶ cm/s
CC[C@H](C)[C@@H]1NC(=O)[C@H](CC(C)C)N(C)C(=O)CCCN(C)C(=O)C[C@@H](C(=O)N2CCCCC2)NC(=O)[C@H](CC(C)C)N(C)C(=O)[C@H](C)N(C)C(=O)[C@H]([C@@H](C)O)NC(=O)[C@H](CC(C)C)N(C)C(=O)[C@H](Cc2ccc(O)c(F)c2)NC(=O)[C@H](CC(C)C)N(C)C(=O)[C@H](Cc2ccccc2)N(C)C1=O [pd119] ([NMeGABA][NMeL]I[NMeF][NMeL][Tyr(3-F)][NMeL]T[NMeA][NMeL]D-Piperidide; lactam N-11)	0.16 ×10⁻⁶ cm/s
CC(C)C[C@@H]1NC(=O)[C@H](C)N(C)C(=O)C[C@@H](C(=O)N2CCCCC2)NC(=O)[C@H](CC(C)C)N(C)C(=O)CN(C)C(=O)[C@H](Cc2ccc(O)c(F)c2)NC(=O)[C@H](CC(C)C)N(C)C(=O)[C@H](C)N(C)C(=O)[C@H](C)NC(=O)[C@H](Cc2ccccc2)N(C)C(=O)[C@H](CC(C)C)N(C)C1=O [pd120] ([NMeA]L[NMeL][NMeF]A[NMeA][NMeL][Tyr(3-F)][Sar][NMeL]D-Piperidide; lactam N-11)	0.23 ×10⁻⁶ cm/s
CC(C)C[C@H]1C(=O)N[C@@H](COC(C)(C)C)C(=O)N(C)[C@@H](Cc2ccccc2)C(=O)N(C)[C@@H](C(C)C)C(=O)N[C@H](C(=O)N2CCCCC2)CC(=O)N[C@H](C(C)C)C(=O)N(C)[C@@H](C)C(=O)N[C@@H](C(C)C)C(=O)N(C)[C@@H](CC(C)C)C(=O)N[C@@H](Cc2ccc(O)cc2)C(=O)N(C)CC(=O)N1C [pd121] ([dV][NMeA]V[NMeL]Y[Sar][NMeL]S(tBu)[NMeF][NMeV]D-Piperidide; lactam N-11)	1 ×10⁻⁶ cm/s
CC(C)C[C@H]1C(=O)N[C@H](C(=O)N2CCCCC2)CC(=O)N(C)[C@@H](C)C(=O)N[C@@H](Cc2ccc(O)c(F)c2)C(=O)N(C)[C@@H](CC(C)C)C(=O)N(C)[C@@H](CC(C)C)C(=O)N[C@@H](C(C)C)C(=O)N(C)[C@@H](Cc2ccccc2)C(=O)N(C)[C@@H](CC(C)C)C(=O)N[C@@H]([C@@H](C)O)C(=O)N(C)CC(=O)N1C [pd122] ([NMeA][Tyr(3-F)][NMeL][NMeL]V[NMeF][NMeL]T[Sar][NMeL]D-Piperidide; lactam N-11)	0.46 ×10⁻⁶ cm/s
CC[C@H](C)[C@@H]1NC(=O)[C@H](CC(C)C)N(C)C(=O)[C@@H](C)NC(=O)C[C@@H](C(=O)N2CCCCC2)NC(=O)[C@H](C)N(C)C(=O)[C@H](Cc2ccccc2)N(C)C(=O)[C@H](COC(C)(C)C)NC(=O)[C@H](CC(C)C)N(C)C(=O)CN(C)C(=O)[C@H](Cc2ccc(O)c(F)c2)NC(=O)[C@H](CC(C)C)N(C)C1=O [pd124] ([dA][NMeL]I[NMeL][Tyr(3-F)][Sar][NMeL]S(tBu)[NMeF][NMeA]D-Piperidide; lactam N-11)	0.32 ×10⁻⁶ cm/s
CC[C@H](C)[C@@H]1NC(=O)[C@H](C(C)C)N(C)C(=O)CCCN(C)C(=O)C[C@@H](C(=O)N2CCCCC2)NC(=O)[C@H](CC(C)C)N(C)C(=O)[C@H](C)N(C)C(=O)[C@H](Cc2ccc(O)cc2)NC(=O)[C@H](CC(C)C)N(C)C(=O)[C@H](COC(C)(C)C)NC(=O)[C@H](Cc2ccccc2)N(C)C(=O)[C@H](CC(C)C)N(C)C1=O [pd125] ([NMeGABA][NMeV]I[NMeL][NMeF]S(tBu)[NMeL]Y[NMeA][NMeL]D-Piperidide; lactam N-11)	0.45 ×10⁻⁶ cm/s
CC[C@H](C)[C@H]1C(=O)N[C@@H](Cc2ccc(O)cc2)C(=O)N(C)CC(=O)N(C)[C@@H](CC(C)C)C(=O)N[C@H](C(=O)N2CCCCC2)CC(=O)N(C)[C@@H](C)C(=O)N[C@@H](C(C)C)C(=O)N(C)[C@@H](CC(C)C)C(=O)N(C)[C@@H](CC(C)C)C(=O)N[C@@H](C)C(=O)N(C)[C@@H](Cc2ccccc2)C(=O)N1C [pd126] ([NMeA]V[NMeL][NMeL]A[NMeF][NMeI]Y[Sar][NMeL]D-Piperidide; lactam N-11)	0.42 ×10⁻⁶ cm/s
CC(C)C[C@@H]1NC(=O)[C@H](Cc2ccccc2)N(C)C(=O)[C@@H](C(C)C)NC(=O)C[C@@H](C(=O)N2CCCCC2)NC(=O)[C@H](C)N(C)C(=O)[C@H](CC(C)C)N(C)C(=O)[C@H](COC(C)(C)C)NC(=O)[C@H](CC(C)C)N(C)C(=O)CN(C)C(=O)[C@H](Cc2ccc(O)cc2)NC(=O)[C@H](CC(C)C)N(C)C1=O [pd127] ([dV][NMeF]L[NMeL]Y[Sar][NMeL]S(tBu)[NMeL][NMeA]D-Piperidide; lactam N-11)	0.13 ×10⁻⁶ cm/s
CC(C)C[C@@H]1NC(=O)[C@H](Cc2ccccc2)N(C)C(=O)[C@@H](C(C)C)NC(=O)C[C@@H](C(=O)N2CCCCC2)NC(=O)[C@H](CC(C)C)N(C)C(=O)[C@H](CC(C)C)N(C)C(=O)[C@H](Cc2ccc(O)c(F)c2)NC(=O)[C@H](CC(C)C)N(C)C(=O)CN(C)C(=O)[C@H]([C@@H](C)O)NC(=O)[C@H](CC(C)C)N(C)C1=O [pd128] ([dV][NMeF]L[NMeL]T[Sar][NMeL][Tyr(3-F)][NMeL][NMeL]D-Piperidide; lactam N-11)	0.17 ×10⁻⁶ cm/s
CC[C@H](C)[C@@H]1NC(=O)[C@H](CC(C)C)N(C)C(=O)CCCN(C)C(=O)C[C@@H](C(=O)N2CCCCC2)NC(=O)[C@H](CC(C)C)N(C)C(=O)[C@H](C)N(C)C(=O)[C@H](Cc2ccc(O)cc2)NC(=O)[C@H](CC(C)C)N(C)C(=O)[C@H](COC(C)(C)C)NC(=O)[C@H](CC(C)C)N(C)C(=O)[C@H](Cc2ccccc2)N(C)C1=O [pd129] ([NMeGABA][NMeL]I[NMeF][NMeL]S(tBu)[NMeL]Y[NMeA][NMeL]D-Piperidide; lactam N-11)	0.16 ×10⁻⁶ cm/s
CC[C@H](C)[C@@H]1NC(=O)[C@H](C(C)C)N(C)C(=O)[C@H](C)N(C)C(=O)[C@H]([C@@H](C)O)NC(=O)[C@H](CC(C)C)N(C)C(=O)[C@H](Cc2ccc(C(F)(F)F)cc2)NC(=O)[C@H](CC(C)C)N(C)C(=O)[C@@H](C)N(C)C(=O)C[C@@H](C(=O)N2CCCCC2)NC(=O)[C@H](CC(C)C)NC(=O)[C@@H]2CCCN2C1=O [pd133] ([dNMeA][NMeL][Phe(4-CF3)][NMeL]T[NMeA][NMeV]IPLD-Piperidide; lactam N-11)	2.3 ×10⁻⁶ cm/s
